pIC50: −log10 of the molar value. “Also recorded” adds a separate entry of the source.
How the values were obtained:
[1] = target: PIM-1 (Homo sapiens, UniProt P11309); assay: Follow-up kinase screening and IC50 (SignalChem), PIM-1; type: biochemical; design: assay run by SignalChem Pharmaceuticals, Inc. (Richmond, BC, Canada)
[2] = test system: MCF7; assay: IC50 in tumor cell lines (MCF7); type: cell-based; conditions: Table 2; breast tumor cell line MCF7
Procedure: (§1) Cytotoxicity Assays. Cytotoxicity assays in the mechanism of action studies were performed according to Mosmann (1983), wherein the activity of mitochondrial reductases were measured using 3-(4,5-dimethylthiozol-3-yl)-2,5-diphenyltetrozolium bromide dye. In brief, cells were seeded in 96-well plates and incubated for various times at 37° C. Inhibition of cell growth was measured by adding 3-(4,5-dimethylthiozol-3-yl)-2,5-diphenyltetrozolium bromide dye, and after an additional 4 h of incubation at 37° C., the 96-well plates were centrifuged, and the culture supernatant was removed. DMSO was added to each well to solubilize the formazan crystals, and the optical density was read at 540 nm on a Quant Spectrophotometer (BioTek Instruments, Winooski, Vt.). Cell growth inhibition data are expressed as percentage of survival compared with untreated cells. The IC50 is defined as the drug concentration required to produce 50% growth inhibition. Results are mean S.E.M. (n 3).

[3] = test system: DU145; assay: IC50 in tumor cell lines (DU145); type: cell-based; conditions: Table 1; prostate tumor cell line DU145
Procedure: as §1

[4] = test system: BxPC3 DPC-4(+/+) and BxPC3 DPC-4(−/−) cells; assay: Cytotoxicity (96-h MTT) in isogenic BxPC3 cell lines; type: cell-based, Human; conditions: BxPC3 cell lines
Procedure: Cell lines and Culture Conditions. Human pancreatic cancer cell lines MiaPaCa-2 (Yunis et al., 1977), Panc-1 (Lieber et al., 1975), and BxPC3 (Tan et al., 1986) were purchased from the American Type Culture Collection (Manassas, Va.) and cultured in a humidified incubator at 37° C., 5% CO2, in RPMI 1640 medium (CellGro, Manassas, Va.) supplemented with 10% heat-inactivated bovine calf serum, 2 mM L-glutamine, 100 U/ml penicillin, and 100 µg/ml streptomycin (Invitrogen, Carlsbad, Calif.). MiaPaCa-2 (CRL-1420) is an adherent epithelial human pancreatic cancer cell line with a doubling time of approximately 40 h (Yunis et al., 1977). Panc-1 (CRL-1469) is an undifferentiated human pancreatic epithelial cell line with a doubling time of approximately 52 h (Lieber et al., 1975). The BxPC3 cell line DPC-4(−/−) and its isogenic restored wild-type DPC-4(+/+) cell line were developed and cultured as described previously (Wang et al., 2006). In brief, a DPC-4-expressing construct (pMSCVneoDPC-4) was created by amplifying full-length cDNA of DPC-4 using reverse transcriptase-PCR and subcloning into the multiple cloning site of a retroviral vector (pMSCVneo). The DPC-4-expressing construct was cotransfected into the BxPC3 DPC-4(−/−) cells using a packaging cell line, resulting in a cell line that constitutively expresses DPC-4. The expression of DPC-4 was confirmed by Western blotting (Wang et al., 2006).
as §1
Mean±S.E.M., n=3. […] Mean±S.E.M., n=3. […] Mean tumor burden is shown.

[5] = Pharmacokinetic study, single intravenous dose; type: in vivo, SCID mice; conditions: single intravenous 88 mg/kg
Procedure: Pharmacokinetic Studies. The pharmacokinetics of DPC-046 in nontumor bearing SCID mice was determined after intravenous administration of a single dose of 88 mg/kg. Plasma samples were collected at 0, 1, 5, 15, 30, 60, 90, 120, 240, 480, 960, and 1440 min after dosing. Plasma DPC-046 concentrations were analyzed by reversed-phase chromatography and tandem mass spectrometry. In brief, mouse plasma was mixed with 99 volumes of acetonitrile, and an aliquot of the supernatant was injected onto the LC-MS. The LC-MS analysis was performed on a ThermoFinnigan Quantum Ultra triple quadrupole mass spectrometer (Thermo Fisher Scientific, Waltham, Mass.) in tandem with a Surveyor LC system. […] Data are mean±S.E.M. (n=3).

[6] = test system: synthesis of DNA, RNA, or protein; assay: Measurement of macromolecular synthesis (radiolabeled precursors); type: cell-based
Procedure: Measurement of Macromolecular Synthesis. Radiolabeled precursors of DNA ([^3H]thymidine) and protein ([^14C]valine) were obtained from GE Healthcare (Piscataway, N.J.). The RNA precursor [^3H]uridine was obtained from MP Biomedical (Irvine, Calif.). In brief, cells were plated in 96-well plates and allowed to adhere before adding DPC-046 for 24 to 72 h. Radiolabeled precursors ([…] for thymidine and uridine, and 0.05 µCi/well for valine) were added and allowed to incorporate for 6 h at 37° C. Cells were harvested onto Unifilter-96 GF/B filterplates using a Packard Filtermate 96-well harvester and counted using a Packard Top Count NXT 96-well scintillation counter (PerkinElmer Life and Analytical Sciences, Boston, Mass.).

[7] = Plasma protein binding (rapid equilibrium dialysis), mouse plasma; type: in vitro ADME; conditions: plasma concentration of 3.27 μM
Procedure: Plasma Protein Binding. Plasma protein binding of DPC-046 was determined in human and mouse plasma using rapid equilibrium dialysis (RED) devices manufactured by Thermo Fisher Scientific. Plasma pH was adjusted to 7.4 and spiked with DPC-046 to a final plasma concentration of 1 μg/ml. Aliquots (500 μl) of the spiked plasma were placed into the sample chamber, and 750 μl of phosphate-buffered saline were placed into the adjacent chamber. Triplicate samples were loaded into the RED devices. The RED devices were incubated at 37° C. on an orbital shaker operating at 100 rpm for 24 h. […] After the incubation, aliquots of plasma and buffer were removed for the analysis of DPC-046 concentration by LC-MS-MS as described above.

[8] = target: T1, PDGFRα (Homo sapiens, UniProt P16234); assay: Initial kinase screening (Amphora), PDGFRα; type: biochemical; conditions: 10 μM compound
T1 construct: assay run by Amphora Discovery Corporation (Durham, N.C.)
T1 sequence (P16234 24-1089, species assumed): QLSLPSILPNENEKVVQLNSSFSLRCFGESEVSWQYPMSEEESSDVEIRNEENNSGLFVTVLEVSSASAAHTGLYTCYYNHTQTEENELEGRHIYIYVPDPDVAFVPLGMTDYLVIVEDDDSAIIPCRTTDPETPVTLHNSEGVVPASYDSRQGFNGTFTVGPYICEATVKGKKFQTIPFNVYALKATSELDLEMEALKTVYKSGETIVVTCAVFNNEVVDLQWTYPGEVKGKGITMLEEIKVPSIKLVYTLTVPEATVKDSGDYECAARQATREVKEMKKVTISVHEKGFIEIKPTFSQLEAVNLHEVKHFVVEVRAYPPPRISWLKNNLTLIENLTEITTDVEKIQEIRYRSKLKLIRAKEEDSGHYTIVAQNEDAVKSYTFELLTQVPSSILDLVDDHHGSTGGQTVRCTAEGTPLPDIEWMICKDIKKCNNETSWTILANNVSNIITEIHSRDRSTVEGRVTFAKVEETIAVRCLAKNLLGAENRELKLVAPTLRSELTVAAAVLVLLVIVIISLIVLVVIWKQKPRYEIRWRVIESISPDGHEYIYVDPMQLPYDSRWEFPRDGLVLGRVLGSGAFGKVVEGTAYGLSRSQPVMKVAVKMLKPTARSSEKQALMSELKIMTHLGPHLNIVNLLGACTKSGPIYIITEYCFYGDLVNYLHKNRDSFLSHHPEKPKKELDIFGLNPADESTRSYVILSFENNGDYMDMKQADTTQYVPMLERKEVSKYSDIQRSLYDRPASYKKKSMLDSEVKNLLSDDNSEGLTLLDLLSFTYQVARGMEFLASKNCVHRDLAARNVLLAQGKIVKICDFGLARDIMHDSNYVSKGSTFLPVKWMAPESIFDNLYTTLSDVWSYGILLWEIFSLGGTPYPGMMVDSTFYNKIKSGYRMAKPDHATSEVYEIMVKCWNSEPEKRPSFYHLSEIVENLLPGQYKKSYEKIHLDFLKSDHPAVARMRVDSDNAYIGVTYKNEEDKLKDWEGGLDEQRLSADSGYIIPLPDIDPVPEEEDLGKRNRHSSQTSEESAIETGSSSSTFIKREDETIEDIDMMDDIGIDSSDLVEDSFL
Procedure: Kinase Screening. Initial kinase screening was performed by Amphora Discovery Corporation (Durham, N.C.).

[9] = test system: MiaPaCa-2 tumors; assay: Antitumor efficacy and tolerability, MiaPaCa-2 tumors in SCID mice
Procedure: In Vivo Studies. Six- to 7-week-old male SCID mice were implanted with 10×10^6 MiaPaCa-2 cells in MatriGel (BD Biosciences) subcutaneously in the flank to establish tumors. Once the tumors reached approximately 100 mm^3 and were palpable (approximately 3 weeks later), DPC-046 treatment was initiated. […] Mice were administered vehicle alone or 44, 55, or 66 mg/kg/day DPC-046 intraperitoneally for 5 consecutive days. Tumor size, body weight, and general health of each mouse were recorded every 3rd day for the duration of the study.
FIG. 15 depicts the antitumor efficacy of (D)PC-046 in SCID mice. 10×10^6 MiaPaCa-2 cells in MatriGel were implanted subcutaneously into the flanks of SCID mice. Mice were randomized on day 6 (arrow) and then injected with vehicle alone or 44 or 55 mg/kg/day (D)PC-046 intraperitoneally daily for 5 consecutive days. Mean tumor burden is shown. Mean±S.D. (n=4 or 5). FIG. 16 depicts the AUC of tumor size versus time of MiaPaCa-2 tumors in SCID mice.

[10] = 66 mg/kg/day i.p., 5 consecutive days, initial dose-ranging study

Sequence of PIM-1 (P11309 whole entry): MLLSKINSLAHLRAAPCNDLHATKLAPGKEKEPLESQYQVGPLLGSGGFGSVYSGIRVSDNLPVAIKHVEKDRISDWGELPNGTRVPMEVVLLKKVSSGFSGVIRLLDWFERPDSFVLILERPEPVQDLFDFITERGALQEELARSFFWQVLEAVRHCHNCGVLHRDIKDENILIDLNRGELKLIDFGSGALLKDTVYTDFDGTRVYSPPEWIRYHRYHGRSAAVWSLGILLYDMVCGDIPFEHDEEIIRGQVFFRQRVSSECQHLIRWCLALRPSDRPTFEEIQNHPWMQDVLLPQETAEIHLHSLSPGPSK

SMILES: COc1ccc(-c2cnc(-c3ccncc3-c3cccc(OC)c3)o2)cc1 [DPC046]
- inhibition of PIM-1 ([1]; 25 μM DPC-046, follow-up screen): more than 70%
- pIC50 ([1]; eight-point concentration range 10 nM to 50 μM): 4.72
- inhibition of PIM-1 ([1]; highest concentration tested (50 μM)): 84%
- pIC50 [2]: 7.96
- pIC50 [3]: 7.57
- potency against BxPC3 cell lines (in words) ([4]; listed as DPC-046): most potent; also recorded: greatest cytotoxicity
- potency against BxPC3 cell lines (in words) ([4]; listed as PC-046): high potency
- apparent volume of distribution ([5]; mice): 135.2 L/kg
- clearance ([5]; mice): 248 mL/min/kg
- mean (S.D.) plasma concentration at last sampling time ([5]; mice, 24 h): 0.226 (0.104) μM
- mean (S.D.) peak plasma concentration ([5]; mice, first sampling time (1 min)): 10.8 (4.26) μM
- monoexponential half-life ([5]; mouse plasma): 7.5 h
- selectivity of inhibition of DNA, RNA or protein synthesis (in words) ([6]; 24 to 72 h): no selective inhibition
- pIC50 ([6]; DNA, RNA, protein, average, at 72 h, read-out: IC50 for inhibition of synthesis of each macromolecule): ~5.52
- bound to plasma proteins [7]: 91%
- inhibition of PDGFRα [8]: 46%
- antitumor efficacy (in words) ([9]; 44 mg/kg/day daily for 5 days): not effective
- average loss of body weight ([9]; 55 mg/kg/day group, while receiving injections, recovered by end of study): 15.8%
- area under the tumor size X time curve vs controls (in words) ([9]; 55 mg/kg/day group, p=0.014): statistically significant reduction
- weight loss ([9]; 55 mg/kg/day, daily for 5 days, initial study): 10%
- MiaPaCa-2 tumor growth vs untreated controls (in words) ([9]; 55 mg/kg/day, daily for 5 days, preliminary data not shown): reduced MiaPaCa-2 tumor growth
- tolerability (in words) ([9]; 66 mg/kg/day i.p., 5 consecutive days): not tolerated
- death [9, 10]: 60%
- weight loss [9, 10]: −15%
- MiaPaCa-2 tumor growth vs untreated group (in words) ([9]; experiment comparing 44 or 55 mg/kg/day daily for 5 days): significant inhibition of MiaPaCa-2 tumor growth

Reference: patent US8987309B2, “Compounds, pharmaceutical compositions and methods of use of 2-aryl pyridylazoles” (The Translational Genomics Research Institute, priority 2009, dated 2015)
